Reference: patent US20160279088A1, “COMPOSITION FOR PROMOTING DIFFERENTIATION OR PROLIFERATION OF ERYTHROCYTIC CELLS, CONTAINING MONOACETYL DIACYLGLYCEROL COMPOUND AS ACTIVE INGREDIENT” (ENZYCHEM LIFESCIENCES CORPORATION, priority 2013, published 2016)
“Also recorded” adds a separate entry of the source.

What was measured:
[1] = tested on: erythroid cells; assay: FACS analysis of erythroid cells (TER-119) in bone marrow cells of mice treated with EC-18; assay type: in vivo, C57BL mouse; conditions: C57BL mice, EC-18 orally 50 mg/kg for seven days; untreated mice 31.2%
Method: Bone marrow cells were isolated from C57BL mice in the following manner. A total of eight 9-week-old C57 BL mice weighting […] were used in the experiment. Three mice were used as control (C1-3). EC-18 was administered orally to five mice at a dose of 50 mg/kg for seven days. Mice were sacrificed by […] and sterilized with 70% alcohol. The tissue of tibia and femur was cut, skin was removed and muscles were taken out. After removing tibia by breaking it in the opposite direction, the sample was washed with 70% alcohol and placed in PBS. After removing the cartilage between femur and tibia, muscles were removed from femur. Femur was separated from pelvis, washed in 70% alcohol and placed in PBS. In order to isolate bone marrow cells from femur, the pelvic end was cut and after filling the 1 ml syringe with culture media, the needle was injected into the cartilage in the knee side to allow bone marrow cells to be pushed out. […]
Differentiation and proliferation of erythroid cells in bone marrow cells collected from C57BL mice treated with EC-18 were analyzed by using TER-119 antibody (BD Biosciences-Pharmingen, San Jose, Calif., USA), which is a marker of erythroid cells, and FACS. […] Bone marrow cells isolated by the method of Example 2 were stained by incubating with anti-TER119-FITC antibody and analyzed by using FACscan flow cytometer (Becton Dickinson, San Jose, Calif.).

[2] = tested on: cells other than erythroid cells in bone marrow cells; assay: FACS analysis of other bone marrow cells (B, T, DC, macrophages, neutrophils, NK) of mice treated with EC-18; assay type: in vivo, C57BL mouse; conditions: C57BL mice, EC-18 orally 50 mg/kg for seven days, CD19, CD4, CD8, CD11c, CD11b/F4, CD11b/ly, CD122 antibodies
Method: Bone marrow cells were isolated from C57BL mice in the following manner. A total of eight 9-week-old C57 BL mice weighting […] were used in the experiment. Three mice were used as control (C1-3). EC-18 was administered orally to five mice at a dose of 50 mg/kg for seven days. Mice were sacrificed by […] and sterilized with 70% alcohol. The tissue of tibia and femur was cut, skin was removed and muscles were taken out. After removing tibia by breaking it in the opposite direction, the sample was washed with 70% alcohol and placed in PBS. After removing the cartilage between femur and tibia, muscles were removed from femur. Femur was separated from pelvis, washed in 70% alcohol and placed in PBS. In order to isolate bone marrow cells from femur, the pelvic end was cut and after filling the 1 ml syringe with culture media, the needle was injected into the cartilage in the knee side to allow bone marrow cells to be pushed out. The culture media containing bone marrow cells was transferred to a tube and the tube was centrifuged. […]
Bone marrow cells isolated from C57BL mice treated with EC-18 (EC1-EC5, EC-18) and untreated mice (C1-C3, con) were compared. […] Cells were incubated with TER-119, CD19, CD4, CD8, CD11c, CD11b/ly, CD122 antibodies (BD Biosciences-Pharmingen, San Jose, CA, USA) for 1 hour and analyzed using FACscan flow cytometer (Becton Dickinson, San Jose, Calif.).

[3] = sepsis animal model, cecal-ligation-puncture; cited from earlier work
[4] = GLP toxicity test; cited from earlier work
[5] = tested on: erythrocytes; assay: Concentration of erythrocytes in blood of phenyl hydrazine anemia-induced mice; assay type: in vivo, mouse; conditions: EC-18 orally 5 mg/ml
Method: To observe changes in the level of erythrocytes in mouse blood, anemia-induced mice were prepared by administering phenyl hydrazine (PHZ) intraperitoneally into mice weighing […] at a dose of […]. After administering EC-18 orally to the mice at a dose of 5 mg/ml, blood was collected after 3 days and 13 days. For comparison, a normal group that was not treated with phenyl hydrazine and a control group that was treated with olive oil instead of EC-18 were prepared and blood was collected from the groups after 3 days and 13 days. Collected blood was transferred to EDTA bottle 0.5 ml (Minicollect tube, Greiner bio-one, Austria) and the concentration of erythrocytes (number per pl, unit: 10^6) was measured using a flow cytometer, Auto Hematology Analyzer BC-5300 (Mindray, Shenzhen, China). FIG. 5 is a graph showing the concentration of erythrocytes 3 days after phenyl hydrazine treatment in the normal group, the control group (treated with PHZ and olive oil) and the test group (treated with PHZ and EC-18). FIG. 6 is a graph showing the concentration of erythrocytes 13 days after phenyl hydrazine treatment in the normal group, the control group and the test group.

CCCCC/C=C\C/C=C\CCCCCCCC(=O)OC(COC(C)=O)COC(=O)CCCCCCCCCCCCCCC (stereo not drawn) [EC-18, 1-palmitoyl-2-linoleoyl-3-acetylglycerol]
percentage of erythroid cells in bone marrow cells (TER-119, FACS) [1]: 41.7% | ratio of cells other than erythroid cells in bone marrow cells [2]: maintained same; also recorded: not changed | survivability ratio of animals [3]: increases survivability ratio | toxicity [4]: no toxicity | concentration of erythrocytes in blood 3 days after PHZ treatment ([5]; vs control (PHZ and olive oil), 3 days): mitigates the reduction of erythrocytes | concentration of erythrocytes in blood 13 days after PHZ treatment ([5]; vs normal group, 13 days): slightly higher than the normal level
